ChEMBL document CHEMBL3580623, “Minor Structural Change to Tertiary Sulfonamide RORc Ligands Led to Opposite Mechanisms of Action” (ACS Med Chem Lett, 2015)

How the values were obtained:
[1] = biological target: T1, Nuclear receptor ROR-gamma (Homo sapiens, UniProt P51449); assay type: functional
T1 sequence (P51449 whole entry): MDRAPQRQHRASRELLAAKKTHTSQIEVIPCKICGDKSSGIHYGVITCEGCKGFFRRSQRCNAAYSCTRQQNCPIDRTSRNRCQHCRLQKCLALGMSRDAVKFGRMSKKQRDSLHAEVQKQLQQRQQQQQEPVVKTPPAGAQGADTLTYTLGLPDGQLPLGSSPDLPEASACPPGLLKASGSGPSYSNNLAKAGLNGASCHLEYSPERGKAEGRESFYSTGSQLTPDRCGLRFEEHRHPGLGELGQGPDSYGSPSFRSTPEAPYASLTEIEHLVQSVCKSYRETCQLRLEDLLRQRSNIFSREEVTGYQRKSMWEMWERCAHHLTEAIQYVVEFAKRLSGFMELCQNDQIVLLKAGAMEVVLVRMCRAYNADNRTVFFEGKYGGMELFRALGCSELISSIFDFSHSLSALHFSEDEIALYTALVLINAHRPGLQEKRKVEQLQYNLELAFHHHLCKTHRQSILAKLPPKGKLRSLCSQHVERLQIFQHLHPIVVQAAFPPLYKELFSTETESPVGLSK

[2] = biological target: T1, Nuclear receptor ROR-gamma
Description: Displacement of [3H2]-25-hydroxycholesterol from N-terminal 6xHis-tagged human RORc ligand binding domain (241 to 486) expressed in bacterial expression system after 3 hrs by scintillation counting analysis

[3] = biological target: T1, Nuclear receptor ROR-gamma; assay type: functional; remark: listed apart in the source
PBMC [4] = test: Induction of IL17 production in human PBMC cells after 48 hrs by sandwich ELISA method; assay type: functional, cell-based
PBMC [5] = test: Induction of IL17 production in human PBMC cells after 48 hrs by sandwich ELISA method relative to control; assay type: functional
PBMC [6] = test: Effect on IFNgamma production in human PBMC cells after 48 hrs by sandwich ELISA method; assay type: functional, cell-based
PBMC [7] = test: Cytotoxicity against human PBMC assessed as effect on cell physiology after 48 hrs by CellTiter-Glo assay; assay type: cell-based
PBMC [8] = test: Inhibition of IL17 production in human PBMC cells after 48 hrs by sandwich ELISA method; assay type: functional, cell-based
PBMC [9] = test: Inhibition of IL17 production in human PBMC cells after 48 hrs by sandwich ELISA method relative to control; assay type: functional
[10] = biological target: T1, Nuclear receptor ROR-gamma; test: Inverse agonist activity at GAL4-fused human RORc expressed in HEK293T cells assessed as suppression of basal transcriptional activity after 20 hrs by dual-glo luciferase reporter gene assay; assay type: functional, cell-based, HEK-293T
[11] = biological target: T2, Nuclear receptor ROR-beta (Homo sapiens, UniProt Q92753); test: Inverse agonist activity at GAL4-fused human RORb expressed in HEK293T cells assessed as suppression of basal transcriptional activity after 20 hrs by dual-glo luciferase reporter gene assay; assay type: cell-based, HEK-293T
T2 sequence (Q92753 whole entry): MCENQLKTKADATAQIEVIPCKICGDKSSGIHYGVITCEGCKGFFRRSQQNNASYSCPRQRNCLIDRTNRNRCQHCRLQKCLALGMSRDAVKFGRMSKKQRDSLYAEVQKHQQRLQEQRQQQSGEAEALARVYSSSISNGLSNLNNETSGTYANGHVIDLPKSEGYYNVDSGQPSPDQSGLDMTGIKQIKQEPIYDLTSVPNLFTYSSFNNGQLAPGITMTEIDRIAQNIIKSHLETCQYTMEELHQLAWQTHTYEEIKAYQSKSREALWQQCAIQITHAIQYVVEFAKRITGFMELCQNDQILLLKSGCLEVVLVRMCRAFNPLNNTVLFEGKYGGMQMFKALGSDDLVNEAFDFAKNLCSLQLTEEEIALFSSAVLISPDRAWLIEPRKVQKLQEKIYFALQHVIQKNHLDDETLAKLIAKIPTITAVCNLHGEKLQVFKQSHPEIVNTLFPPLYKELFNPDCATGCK

[12] = biological target: T3, Nuclear receptor subfamily 1 group I member 2 (Homo sapiens, UniProt O75469); test: Agonist activity at GAL4-fused human PXR expressed in HEK293T cells assessed as activation of basal transcriptional activity after 20 hrs by dual-glo luciferase reporter gene assay; assay type: cell-based; conditions: hek-293t
T3 sequence (O75469 whole entry): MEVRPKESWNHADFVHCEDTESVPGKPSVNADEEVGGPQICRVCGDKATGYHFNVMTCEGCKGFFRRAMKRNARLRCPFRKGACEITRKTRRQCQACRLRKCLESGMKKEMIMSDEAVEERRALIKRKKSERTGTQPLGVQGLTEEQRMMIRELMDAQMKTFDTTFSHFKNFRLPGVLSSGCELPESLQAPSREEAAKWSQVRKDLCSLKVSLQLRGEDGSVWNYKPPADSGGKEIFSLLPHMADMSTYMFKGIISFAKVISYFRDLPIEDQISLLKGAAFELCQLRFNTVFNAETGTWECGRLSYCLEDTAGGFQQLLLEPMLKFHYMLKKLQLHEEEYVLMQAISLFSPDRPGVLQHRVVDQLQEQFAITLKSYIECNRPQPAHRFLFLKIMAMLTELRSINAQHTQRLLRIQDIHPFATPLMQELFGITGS

Bile acid receptor = biological target: T4, Bile acid receptor (Homo sapiens, UniProt Q96RI1); test: Antagonist activity at GAL4-fused human FXR expressed in HEK293T cells assessed as inhibition of agonist-induced transcriptional activity after 20 hrs by dual-glo luciferase reporter gene assay
T4 sequence (Q96RI1 whole entry): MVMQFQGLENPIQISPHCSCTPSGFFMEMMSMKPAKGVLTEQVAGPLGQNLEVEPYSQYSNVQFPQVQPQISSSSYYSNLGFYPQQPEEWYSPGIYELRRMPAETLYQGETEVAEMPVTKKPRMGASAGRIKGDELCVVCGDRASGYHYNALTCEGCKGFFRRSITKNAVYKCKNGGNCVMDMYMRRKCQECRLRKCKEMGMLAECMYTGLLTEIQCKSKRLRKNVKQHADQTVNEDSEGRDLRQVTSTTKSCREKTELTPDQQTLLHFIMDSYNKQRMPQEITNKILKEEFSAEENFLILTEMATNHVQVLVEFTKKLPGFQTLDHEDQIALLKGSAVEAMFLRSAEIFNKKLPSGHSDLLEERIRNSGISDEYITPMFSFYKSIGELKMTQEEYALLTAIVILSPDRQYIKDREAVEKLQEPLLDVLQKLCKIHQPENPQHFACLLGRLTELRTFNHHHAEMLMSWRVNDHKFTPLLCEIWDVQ

[13] = biological target: T5, Oxysterols receptor LXR-alpha (Homo sapiens, UniProt Q13133); test: Antagonist activity at GAL4-fused human LXRalpha expressed in HEK293T cells assessed as inhibition of agonist-induced transcriptional activity after 20 hrs by dual-glo luciferase reporter gene assay
T5 sequence (Q13133 whole entry): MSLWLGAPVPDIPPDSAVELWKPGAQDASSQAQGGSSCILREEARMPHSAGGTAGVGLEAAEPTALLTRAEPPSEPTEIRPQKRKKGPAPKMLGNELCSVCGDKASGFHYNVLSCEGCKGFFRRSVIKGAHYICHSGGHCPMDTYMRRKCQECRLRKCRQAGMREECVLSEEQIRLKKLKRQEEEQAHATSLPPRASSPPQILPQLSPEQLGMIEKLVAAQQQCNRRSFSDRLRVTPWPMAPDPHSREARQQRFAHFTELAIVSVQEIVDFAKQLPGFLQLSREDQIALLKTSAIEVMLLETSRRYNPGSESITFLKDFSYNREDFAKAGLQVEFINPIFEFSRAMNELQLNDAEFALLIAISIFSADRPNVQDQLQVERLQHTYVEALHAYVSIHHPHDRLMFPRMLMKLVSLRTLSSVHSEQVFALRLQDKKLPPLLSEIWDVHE

Structure (SMILES): CC(=O)N1CCN(c2ccc(CN(C3CCC3)S(=O)(=O)Cc3ccc(Cl)cc3)c(F)c2)CC1
- EC50 [1]: 33 nM
- IC50 [2]: 37 nM

Structure (SMILES): CC(=O)N1CCN(c2ccc(CN(C3CCC3)S(=O)(=O)c3ccccc3)c(F)c2)CC1
- EC50 [3]: 69 nM
- EC50 (PBMC [4]): 780 nM
- Efficacy (PBMC [5]): 77%
- EC50 (PBMC [6]): > 10000 nM
- EC50 (PBMC [7]): > 20000 nM

Structure (SMILES): CC(=O)N1CCN(c2ccc(CN(C3CCC3)S(=O)(=O)Cc3ccccc3)c(F)c2)CC1
- EC50 [1]: 11 nM
- EC50 (PBMC [8]): 350 nM
- Efficacy (PBMC [9]): -79%
- EC50 (PBMC [6]): > 10000 nM
- EC50 (PBMC [7]): > 20000 nM

Structure (SMILES): CC(=O)N1CCN(c2ccc(CN(C3CCC3)S(=O)(=O)CCc3ccccc3)c(F)c2)CC1
- EC50 [1]: 310 nM

Structure (SMILES): CC(=O)N1CCN(c2ccc(CN(C3CCC3)S(=O)(=O)c3ccccc3F)c(F)c2)CC1
- EC50 [3]: 63 nM
- EC50 (PBMC [4]): 800 nM
- Efficacy (PBMC [5]): 71%
- EC50 (PBMC [6]): > 10000 nM
- EC50 (PBMC [7]): > 20000 nM

Structure (SMILES): CC(=O)N1CCN(c2ccc(CN(C3CCC3)S(=O)(=O)Cc3ccccc3F)c(F)c2)CC1
- EC50 [1]: 3 nM
- EC50 (PBMC [8]): 320 nM
- Efficacy (PBMC [9]): -72%
- EC50 (PBMC [6]): > 10000 nM
- EC50 (PBMC [7]): > 20000 nM
- EC50 [10]: 15 nM
- EC50 [11]: 2700 nM
- Activity [12]: Not Active
- EC50 (Bile acid receptor): 6100 nM
- EC50 [13]: 9200 nM

Structure (SMILES): CC(=O)N1CCN(c2ccc(CN(C3CCC3)S(=O)(=O)c3cccc(F)c3)c(F)c2)CC1
- EC50 [3]: 41 nM

Structure (SMILES): CC(=O)N1CCN(c2ccc(CN(C3CCC3)S(=O)(=O)Cc3cccc(F)c3)c(F)c2)CC1
- EC50 [1]: 10 nM

Structure (SMILES): CC(=O)N1CCN(c2ccc(CN(C3CCC3)S(=O)(=O)c3ccc(F)cc3)c(F)c2)CC1
- EC50 [1]: > 10000 nM

Structure (SMILES): CC(=O)N1CCN(c2ccc(CN(C3CCC3)S(=O)(=O)Cc3ccc(F)cc3)c(F)c2)CC1
- EC50 [1]: 7 nM

Structure (SMILES): CC(=O)N1CCN(c2ccc(CN(C3CCC3)S(=O)(=O)c3ccccc3Cl)c(F)c2)CC1
- EC50 [3]: 47 nM

Structure (SMILES): CC(=O)N1CCN(c2ccc(CN(C3CCC3)S(=O)(=O)Cc3ccccc3Cl)c(F)c2)CC1
- EC50 [1]: 4 nM

Structure (SMILES): CC(=O)N1CCN(c2ccc(CN(C3CCC3)S(=O)(=O)c3cccc(Cl)c3)c(F)c2)CC1
- EC50 [3]: 50 nM

Structure (SMILES): CC(=O)N1CCN(c2ccc(CN(C3CCC3)S(=O)(=O)Cc3cccc(Cl)c3)c(F)c2)CC1
- EC50 [1]: 9 nM

Structure (SMILES): CC(=O)N1CCN(c2ccc(CN(C3CCC3)S(=O)(=O)c3ccc(Cl)cc3)c(F)c2)CC1
- EC50 [1]: 190 nM

Structure (SMILES): CC(=O)N1CCN(c2ccc(CN(C3CCC3)S(=O)(=O)c3cc(Cl)cc(Cl)c3)c(F)c2)CC1
- EC50 [3]: 6 nM

Structure (SMILES): CC(=O)N1CCN(c2ccc(CN(C3CCC3)S(=O)(=O)Cc3cc(Cl)cc(Cl)c3)c(F)c2)CC1
- EC50 [1]: 40 nM

Structure (SMILES): CC(=O)N1CCN(c2ccc(CN(C3CCC3)S(=O)(=O)c3cc(F)cc(F)c3)c(F)c2)CC1
- EC50 [3]: 14 nM

Structure (SMILES): COc1cccc(S(=O)(=O)N(Cc2ccc(N3CCN(C(C)=O)CC3)cc2F)C2CCC2)c1
- EC50 [3]: 26 nM

Structure (SMILES): COc1ccc(S(=O)(=O)N(Cc2ccc(N3CCN(C(C)=O)CC3)cc2F)C2CCC2)cc1
- EC50 [1]: 3300 nM

Structure (SMILES): CC(=O)N1CCN(c2ccc(CN(C3CCC3)S(=O)(=O)c3ccc(Cl)cc3Cl)c(F)c2)CC1
- EC50 [1]: 220 nM

Structure (SMILES): CC(=O)N1CCN(c2ccc(CN(C3CCC3)S(=O)(=O)c3ccc(OC(F)F)cc3)c(F)c2)CC1
- EC50 [1]: 150 nM
- IC50 [2]: 31 nM

Structure (SMILES): CC(=O)N1CCN(c2ccc(CN(C3CCC3)S(=O)(=O)c3ccc(OC(F)(F)F)cc3)c(F)c2)CC1
- EC50 [1]: 160 nM

Structure (SMILES): CC(=O)N1CCN(c2ccc(CN(C3CCC3)S(=O)(=O)c3ccc(C(F)(F)F)cc3)c(F)c2)CC1
- EC50 [1]: 300 nM

Structure (SMILES): CC(=O)N1CCN(c2ccc(CN(C3CCC3)S(=O)(=O)c3ccc(C(C)(C)C)cc3)c(F)c2)CC1
- EC50 [1]: 120 nM
